This passage reports IC50 results from patent US9896445B2, “Heterocyclic inhibitors of ERK1 and ERK2 and their use in the treatment of cancer” (Asana Biosciences, LLC, priority 2015, dated 2018).

The target of one assay is T1, ERK1 (Homo sapiens, UniProt P27361).
T1 construct: purchased Jubilant Biosys
The experiment in a line: ERK1 HTRF (biochemical) assay. The following applies: HTRF. How it is done:
ERK1 and ERK2 HTRF (Biochemical) Assays
These assays employed a homogeneous time resolved fluorescence (HTRF) technique. […] The plate was incubated at room temperature for 60 min with shaking. […] The IC50 values (half maximal inhibitory concentration values) were subsequently determined using a sigmoidal dose-response curve (variable slope) in GraphPad Prism® 5 software.

The target in a further assay is T2, ERK2 (Homo sapiens, UniProt P28482).
T2 construct: purchased Jubilant Biosys
T2 sequence (P28482 whole entry): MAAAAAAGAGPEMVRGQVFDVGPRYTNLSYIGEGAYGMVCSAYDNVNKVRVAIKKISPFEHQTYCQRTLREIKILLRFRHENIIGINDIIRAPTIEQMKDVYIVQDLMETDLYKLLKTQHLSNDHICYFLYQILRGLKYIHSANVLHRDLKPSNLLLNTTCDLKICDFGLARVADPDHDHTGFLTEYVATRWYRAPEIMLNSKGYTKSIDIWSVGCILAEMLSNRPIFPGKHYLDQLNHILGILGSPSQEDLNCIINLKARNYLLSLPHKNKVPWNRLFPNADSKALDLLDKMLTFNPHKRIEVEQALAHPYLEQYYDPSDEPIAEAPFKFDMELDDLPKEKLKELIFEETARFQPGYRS
The experiment in a line: ERK2 HTRF (biochemical) assay. The note with it: HTRF. The procedure, abridged:
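Readout was time-resolved FRET between europium anti-phospho-MBP and streptavidin-APC after a 60-min room-temperature kinase step. That step used ERK2 (25 nM in enzyme mix), biotinylated MBP peptide (1 uM) and ATP (24 uM) from the substrate mix, in pH 7.5 Tris buffer.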
A general note: TR-FRET usually uses a lanthanide donor and a delayed reading to cut background.

T1 sequence (P27361 whole entry): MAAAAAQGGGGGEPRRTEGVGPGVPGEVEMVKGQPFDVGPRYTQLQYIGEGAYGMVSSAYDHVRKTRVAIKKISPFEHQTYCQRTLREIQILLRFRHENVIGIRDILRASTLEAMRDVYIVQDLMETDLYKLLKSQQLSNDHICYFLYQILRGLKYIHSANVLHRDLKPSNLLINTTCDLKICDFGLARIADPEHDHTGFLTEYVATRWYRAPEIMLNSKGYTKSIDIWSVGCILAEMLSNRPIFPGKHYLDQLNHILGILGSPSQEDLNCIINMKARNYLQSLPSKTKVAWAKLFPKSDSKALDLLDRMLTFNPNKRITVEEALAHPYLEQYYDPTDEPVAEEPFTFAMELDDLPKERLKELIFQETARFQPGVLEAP

By IC50 is commonly meant the concentration at which inhibition is half-maximal. Low values mean higher potency, high ones lower potency. With `Cc1cnc(Nc2ccc(F)c(N3CCOCC3)c2)nc1-n1cnc(C(=O)NC(CO)c2cccc(Cl)c2)c1` (centres unmarked) [Compound 223, N-(1-(3-chlorophenyl)-2-hydroxyethyl)-1-(2-((4-fluoro-3-morpholinophenyl)amino)-5-methyl-pyrimidin-4-yl)-1H-imidazole-4-carboxamide], the half-maximal inhibitory concentration (IC50) against ERK1 is below 50 nM; against ERK2, at most 50 nM.
Consider `Cc1cnc(NC2CCCCC2)nc1-n1cnc(C(=O)NC(CO)c2cccc(Cl)c2)c1` (centres unmarked) [Compound 226, N-(1-(3-chloro-phenyl)-2-hydroxy-ethyl)-1-(2-(cyclohexylamino)-5-methylpyrimidin-4-yl)-1H-imidazole-4-carboxamide], for which the IC50 is below 50 nM at ERK1 and at most 50 nM against ERK2.
In the same order, the values of `O=C(N[C@H](CO)c1cccc(Cl)c1)c1ccn(-c2nc(NC3CCOCC3)ncc2F)c1` [Compound 229, (S)-N-(1-(3-chlorophenyl)-2-hydroxyethyl)-1-(5-fluoro-2-((tetrahydro-2H-pyran-4-yl)amino)-pyrimidin-4-yl)-1H-pyrrole-3-carboxamide] are below 50 nM and at most 50 nM.
Taken in the same sequence, the figures for `Cc1cnc(Nc2ccc(F)cc2)cc1-n1cnc(C(=O)NC(CN)c2ccc(F)cc2)c1` (centres unmarked) [Compound 230, N-(2-amino-1-(4-fluorophenyl)ethyl)-1-(2-((4-fluoro-phenyl)amino)-5-methylpyridin-4-yl)-1H-imidazole-4-carboxamide] were below 50 nM and at most 50 nM.
With `Cc1cnc(Nc2ccc(Oc3ccccc3)cc2)nc1-n1cnc(C(=O)NC(CN)c2cccc(Cl)c2)c1` (centres unmarked) [Compound 231, N-(2-amino-1-(3-chlorophenyl)ethyl)-1-(5-methyl-2-((4-phenoxyphenyl)amino)pyrimidin-4-yl)-1H-imidazole-4-carboxamide], the IC50 is below 50 nM at ERK1 and at most 50 nM at ERK2.
For `Cc1cnc(Nc2ccc(F)cc2Cl)nc1-n1cnc(C(=O)NC(CN)c2cccc(Cl)c2)c1` (centres unmarked) [Compound 232, N-(2-amino-1-(3-chlorophenyl)ethyl)-1-(2-((2-chloro-4-fluorophenyl)amino)-5-methyl-pyrimidin-4-yl)-1H-imidazole-4-carboxamide], the IC50 against ERK1 was below 50 nM; against ERK2, at most 50 nM.
For `Cc1cnc(NC2CCOCC2)nc1-n1cnc(C(=O)NC(CO)c2cccs2)c1` (centres unmarked) [Compound 233, N-(2-hydroxy-1-(thiophen-2-yl)ethyl)-1-(5-methyl-2-((tetrahydro-2H-pyran-4-yl)amino)-pyrimidin-4-yl)-1H-imidazole-4-carboxamide], the half-inhibitory concentration (IC50) is below 50 nM against ERK1 and at most 50 nM on ERK2.
For `Cc1cnc(NC2CCOCC2)nc1-n1cnc(C(=O)NC(CO)c2ccsc2)c1` (centres unmarked) [Compound 234, N-(2-hydroxy-1-(thiophen-3-yl)ethyl)-1-(5-methyl-2-((tetrahydro-2H-pyran-4-yl)amino)-pyrimidin-4-yl)-1H-imidazole-4-carboxamide], the IC50 is below 50 nM at ERK1 and at most 50 nM on ERK2.
Taken in the same sequence, the figures for `Cc1cnc(NC2CCOC2)nc1-n1cnc(C(=O)NC(CN)c2cccc(Cl)c2)c1` (centres unmarked) [Compound 235, N-(2-amino-1-(3-chlorophenyl)ethyl)-1-(5-methyl-2-((tetrahydrofuran-3-yl)amino)pyrimidin-4-yl)-1H-imidazole-4-carboxamide] were below 50 nM and at most 50 nM.
In the same order, the values of `Cc1cnc(NC2CCOCC2)nc1-n1cnc(C(=O)NC(CO)c2cccc(C(F)(F)F)c2)c1` (centres unmarked) [Compound 237, N-(2-hydroxy-1-(3-(trifluoromethyl)-phenyl)ethyl)-1-(5-methyl-2-((tetrahydro-2H-pyran-4-yl)amino)-pyrimidin-4-yl)-1H-imidazole-4-carboxamide] are below 50 nM and at most 50 nM.
In the same order, the values of `Cc1cccc(C(CO)NC(=O)c2cn(-c3nc(NC4CCOCC4)ncc3C)cn2)c1` (centres unmarked) [Compound 238, N-(2-hydroxy-1-(m-tolyl)ethyl)-1-(5-methyl-2-((tetrahydro-2H-pyran-4-yl)amino)pyrimidin-4-yl)-1H-imidazole-4-carboxamide] are below 50 nM and at most 50 nM.
Take `Cc1cnc(NC2CCC(F)(F)CC2)nc1-n1cnc(C(=O)N[C@H](CO)c2cccc(Cl)c2)c1` [Compound 240, (S)-N-(1-(3-chlorophenyl)-2-hydroxyethyl)-1-(2-((4,4-difluorocyclo-hexyl)amino)-5-methylpyrimidin-4-yl)-1H-imidazole-4-carboxamide]: the IC50 on ERK1 was below 50 nM; against ERK2, at most 50 nM.
In the same order, the values of `Cc1cnc(Nc2ccc(F)cc2Cl)nc1-n1cnc(C(=O)N[C@H](CO)c2cccc(Cl)c2)c1` [Compound 241, (S)-1-(2-((2-chloro-4-fluorophenyl)-amino)-5-methyl-pyrimidin-4-yl)-N-(1-(3-chlorophenyl)-2-hydroxyethyl)-1H-imidazole-4-carboxamide] are below 50 nM and at most 50 nM.
Taken in the same sequence, the figures for `Cc1cnc(N[C@H]2CC[C@H](O)CC2)nc1-n1cnc(C(=O)N[C@H](CO)c2cccc(Cl)c2)c1` [Compound 242, N-((S)-1-(3-chlorophenyl)-2-hydroxyethyl)-1-(2-(((1r,4S)-4-hydroxycyclohexyl)amino)-5-methyl-pyrimidin-4-yl)-1H-imidazole-4-carboxamide] were below 50 nM and at most 50 nM.
In the same order, the values of `Cc1cnc(NC2CCOCC2)nc1-n1cnc(C(=O)NCc2ccccc2CCO)c1` [Compound 243, N-(2-(2-hydroxy-ethyl)benzyl)-1-(5-methyl-2-((tetrahydro-2H-pyran-4-yl)amino)pyrimidin-4-yl)-1H-imidazole-4-carboxamide] are below 50 nM and at most 50 nM.
Consider `Cc1cnc(NC2CCS(=O)(=O)C2)nc1-n1cnc(C(=O)N[C@H](CO)c2cccc(Cl)c2)c1` (stereo partly drawn) [Compound 246, N-((S)-1-(3-chlorophenyl)-2-hydroxyethyl)-1-(2-((1,1-dioxido-tetrahydrothiophen-3-yl)amino)-5-methylpyrimidin-4-yl)-1H-imidazole-4-carboxamide], for which the IC50 against ERK1 was below 50 nM; on ERK2, at most 50 nM.
As to `Cc1cnc(NC2CCOc3ccccc32)nc1-n1cnc(C(=O)N[C@H](CO)c2cccc(Cl)c2)c1` (stereo partly drawn) [Compound 247, N-((S)-1-(3-chlorophenyl)-2-hydroxyethyl)-1-(2-(chroman-4-ylamino)-5-methylpyrimidin-4-yl)-1H-imidazole-4-carboxamide], the IC50 at ERK1 is below 50 nM; at ERK2 it was at most 50 nM.
With `Cc1cnc(Nc2ccc(F)cc2)nc1-n1cnc(C(=O)N[C@H](CN)c2cccc(Cl)c2)c1` [Compound 248, (S)-N-(2-amino-1-(3-chlorophenyl)-ethyl)-1-(2-((4-fluorophenyl)amino)-5-methyl-pyrimidin-4-yl)-1H-imidazole-4-carboxamide], the figures for the concentration for half-maximal inhibition (IC50) on ERK1 and against ERK2 were below 50 nM and at most 50 nM, respectively.
Turning to `Cc1cnc(Nc2ccc(F)cc2)nc1-n1cnc(C(=O)N[C@@H](CN)c2cccc(Cl)c2)c1` [Compound 249, (R)-N-(2-amino-1-(3-chlorophenyl)-ethyl)-1-(2-((4-fluorophenyl)-amino)-5-methyl-pyrimidin-4-yl)-1H-imidazole-4-carboxamide], the IC50 against ERK1 was 500 to 2500 nM; on ERK2, 100 to 500 nM.
On to `Cc1cnc(NC2CCOC(C)C2)nc1-n1cnc(C(=O)N[C@H](CO)c2cccc(Cl)c2)c1` (stereo partly drawn) [Compound 251, N-((S)-1-(3-chlorophenyl)-2-hydroxyethyl)-1-(5-methyl-2-((2-methyltetrahydro-2H-pyran-4-yl)amino)pyrimidin-4-yl)-1H-imidazole-4-carboxamide], for which the 50% inhibitory concentration (IC50) at ERK1 is below 50 nM; against ERK2, at most 50 nM.
On to `Cc1cnc(NC2CCOCC2)nc1-n1cnc(C(=O)NC(c2cccc(Cl)c2)C(C)O)c1` (centres unmarked) [Compound 253, N-(1-(3-chlorophenyl)-2-hydroxypropyl)-1-(5-methyl-2-((tetrahydro-2H-pyran-4-yl)amino)-pyrimidin-4-yl)-1H-imidazole-4-carboxamide], for which the figures for the IC50 on ERK1 and against ERK2 were below 50 nM and at most 50 nM, respectively.
Taken in the same sequence, the figures for `Cc1cnc(N[C@H]2CCOC2)nc1-n1cnc(C(=O)N[C@H](CN)c2cccc(Cl)c2)c1` [Example 255, N-((S)-2-amino-1-(3-chlorophenyl)-ethyl)-1-(5-methyl-2-(((S)-tetrahydro-furan-3-yl)amino)-pyrimidin-4-yl)-1H-imidazole-4-carboxamide] were below 50 nM and at most 50 nM.
In the same order, the values of `Cc1cnc(Nc2ccc(F)c(N3CCOCC3)c2)nc1-n1cnc(C(=O)NC(CN)c2cccc(Cl)c2)c1` (centres unmarked) [Example 256, N-(2-amino-1-(3-chlorophenyl)ethyl)-1-(2-((4-fluoro-3-morpholinophenyl)amino)-5-methyl-pyrimidin-4-yl)-1H-imidazole-4-carboxamide] are below 50 nM and at most 50 nM.
For the compound `Cc1cnc(NC2CCOCC2)nc1-n1cnc(C(=O)NC(CO)c2ccc(Cl)s2)c1` (centres unmarked) [Example 257, N-(1-(5-chlorothiophen-2-yl)-2-hydroxy-ethyl)-1-(5-methyl-2-((tetrahydro-2H-pyran-4-yl)amino)-pyrimidin-4-yl)-1H-imidazole-4-carboxamide], the values for the IC50 at ERK1 and on ERK2 were below 50 nM and at most 50 nM, respectively.
In the case of `Cc1cnc(NC2CCOCC2)nc1-n1cnc(C(=O)NC(CO)c2cccc(C(C)(C)C)c2)c1` (centres unmarked) [Example 258, N-(1-(3-(tert-butyl)phenyl)-2-hydroxyethyl)-1-(5-methyl-2-((tetrahydro-2H-pyran-4-yl)amino)-pyrimidin-4-yl)-1H-imidazole-4-carboxamide], the figures for the concentration for half-maximal inhibition (IC50) at ERK1 and against ERK2 were below 50 nM and at most 50 nM, respectively.
